Experimental data as given in patent publication US20250099420A1, “SMALL MOLECULE MODULATORS OF GPR139 COMPLEX” (University of Florida Research Foundation, Incorporated, priority 2022, published 2025).
Where two headings read alike, the source gives them in different places.

How the values were obtained:
parental HEK cells = experiment: HEK parental Agonist Counterscreen Assay (non-transfected cells); type: cell-based; details: for Averaged Max % Response (±St. Dev.): activity relative to known control
Text: The high control for the agonist counterscreen was Forskolin not acetylcholine.

GPR139 = biological target: T1, GPR139 (Homo sapiens, UniProt Q6DWJ6); experiment: GPR139 Agonist titration / agonist counterscreen assay (calcium detection, HEK-GPR139 cells); type: cell-based; parameters: expressed in transfected cells; host or cells: HEK Aequorin cells, Maxcyte transient transfection; details: GPR139 Agonist Activity; for Averaged Max % Response (±St. Dev.): activity relative to known control; for EC50: read-out: EC50
T1 sequence (Q6DWJ6 1-353): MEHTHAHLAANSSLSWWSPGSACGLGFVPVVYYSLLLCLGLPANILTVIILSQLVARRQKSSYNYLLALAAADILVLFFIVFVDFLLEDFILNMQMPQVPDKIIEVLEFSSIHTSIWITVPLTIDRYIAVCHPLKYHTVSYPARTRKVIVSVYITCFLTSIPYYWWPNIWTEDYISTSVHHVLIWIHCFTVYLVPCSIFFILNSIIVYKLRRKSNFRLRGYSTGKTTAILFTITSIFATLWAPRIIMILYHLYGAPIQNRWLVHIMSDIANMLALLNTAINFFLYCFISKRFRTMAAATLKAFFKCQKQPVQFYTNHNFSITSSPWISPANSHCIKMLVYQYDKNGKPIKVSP
Description: GPR activity was assessed using a calcium detection assay. […] Negative control samples were treated with DMSO. […] Intracellular calcium was measured using Calcium 5.

[1] = Homo sapiens, HEK293, HEK Agonist Activity, parental non-transfected HEK cells
[2] = values printed in E-notation without unit
[3] = Homo sapiens, HEK293, HEK Agonist Activity section of Table 4 (parental HEK counterscreen)
[4] = HEK Agonist Activity section of Table 4 (parental HEK counterscreen)

Row | Compound | Averaged Max % Response (±St. Dev.) (GPR139) | Lipophilic Efficiency (logD) (GPR139; based on logD) | Lipophilic Efficiency (logP) (GPR139; based on logP) | Hill Slope (GPR139; fitted dose-response curve) | Efficiency Ligand (GPR139; ligand efficiency) | EC50 (GPR139; [2]) | Lipophilic Efficiency (logD) (parental HEK cells; HEK Agonist Activity section) | Lipophilic Efficiency (logP) (parental HEK cells; HEK Agonist Activity section) | Averaged Max % Response (±St. Dev.) (parental HEK cells; HEK Agonist Activity section) | EC50 (parental HEK cells; [3]) | Efficiency Ligand (GPR139) | Hill Slope (GPR139) | Lipophilic Efficiency (logD) (GPR139) | Lipophilic Efficiency (logP) (GPR139) | EC50 (GPR139; HEK-GPR139 cells) | EC50 (parental HEK cells; [4]) | also measured
1 | Cc1c(C(=O)NC(C)(C)CO)cnn1-c1ncc2c(n1)-c1ccccc1CC2 [SR-01000239973] | 105.15 ± 8.65% | 5.11 | 5.11 | 0.92 | 0.39 | 15.7 nM |  |  |  |  |  |  |  |  |  |  | Lipophilic Efficiency (logD) (parental HEK cells; HEK Agonist Activity): 2.16; Lipophilic Efficiency (logP) (parental HEK cells; HEK Agonist Activity): 2.16; Averaged Max % Response (±St. Dev.) (parental HEK cells; HEK Agonist Activity): −7.52 ± 3.99%; EC50 (parental HEK cells; [1]): > 14100 nM
2 | CCOc1ccc(C(=O)NCCc2ccc(F)cc2)cc1OCC [SR-01000243797] | 105.74 ± 4.40% | 3.09 | 3.09 | 1.05 | 0.39 | 205 nM | 1.25 | 1.25 | 10.10 ± 12.81% | > 14100 nM |  |  |  |  |  |  | 
3 | COC(=O)c1ccc(NC(=O)CNC(=O)C2CCCCC2)c(C)c1 [SR-01000246445] | 77.11 ± 5.52% |  |  |  |  |  | 2.12 | 2.12 | 30.43 ± 4.82% | > 14100 nM | 0.36 | 1.22 | 3.52 | 3.52 | 554 nM |  | 
4 | CCOC(=O)c1ccc(NC(=O)Cn2c(C)c(C=O)c3ccccc32)cc1 [SR-01000248261] | 81.40 ± 9.66% |  |  |  |  |  | 1.37 | 1.37 | 19.46 ± 6.76% |  | 0.30 | 1.06 | 2.28 | 2.28 | 1700 nM | > 14100 nM | 
5 | CCOC(=O)c1cccc(NC(=O)Cc2cccc3ccccc23)c1 [SR-01000267161] | 105.03 ± 11.34% |  |  |  |  |  | 0.46 | 0.46 | 13.91 ± 0.63% |  | 0.33 | 0.55 | 1.49 | 1.49 | 1300 nM | > 14100 nM | 
6 | Cc1c(C=O)c2ccccc2n1CC(=O)NCc1ccccc1 [SR-01000269911] | 88.11 ± 5.39% |  |  |  |  |  | 2.02 | 2.02 | 5.27 ± 9.17% | > 14100 nM | 0.37 | 1.69 | 3.22 | 3.22 | 898 nM |  | 
7 | COc1ccc(CCNC(=O)Nc2ccc(C)cc2)cc1 [SR-01000271555] | 124.00 ± 20.16% | 3.11 | 3.11 | 0.62 | 0.44 | 260 nM | 1.38 | 1.38 | 14.71 ± 4.12% | > 14100 nM |  |  |  |  |  |  | 
8 | CCOC(=O)c1ccc(CSc2nnc(N)s2)cc1 [SR-01000273754] | 86.25 ± 6.17% | 4.03 | 4.03 | 0.89 | 0.51 | 118 nM | 1.95 | 1.95 | 2.38 ± 11.60% |  |  |  |  |  |  | > 14100 nM | 
9 | COc1ccc(OC)c(NC(=O)NNC(=O)C(C)Oc2ccc(Cl)cc2Cl)c1 (stereo not drawn) [SR-01000276878] | 97.36 ± 11.63% | 4.40 | 4.36 | 0.75 | 0.38 | 23.9 nM |  |  |  |  |  |  |  |  |  |  | Lipophilic Efficiency (logD) (parental HEK cells; HEK Agonist Activity): 1.62; Lipophilic Efficiency (logP) (parental HEK cells; HEK Agonist Activity): 1.58; Averaged Max % Response (±St. Dev.) (parental HEK cells; HEK Agonist Activity): 6.40 ± 8.50%; EC50 (parental HEK cells; [1]): > 14100 nM
10 | COc1ccc(C)cc1NC(=O)NNC(=O)C(C)Oc1ccc(F)cc1Cl (stereo not drawn) [SR-01000277633] | 93.18 ± 13.55% |  |  |  |  |  | 1.40 | 1.38 | −5.71 ± 6.76% | > 14100 nM | 0.33 | 1.11 | 2.85 | 2.82 | 508 nM |  | 
11 | O=C(CNc1nnc(CCCOc2ccc(Cl)cc2Cl)o1)Nc1nccs1 [SR-01000280669] | 83.43 ± 6.82% |  |  |  |  |  | 1.27 | 1.27 | −0.76 ± 4.25% | > 14100 nM | 0.33 | 0.56 | 2.70 | 2.70 | 516 nM |  | 
12 | COc1ccc(CSc2nnc(-c3cccnc3)n2N)cc1 [SR-01000284323] | 94.97 ± 7.83% |  |  |  |  |  | 3.34 | 3.34 | 3.28 ± 6.64% |  | 0.41 | 0.57 | 4.90 | 4.90 | 386 nM | > 14100 nM | 
13 | Cc1ccc(SCC(=O)NNC(=O)c2cccs2)cc1 [SR-01000286062] | 99.20 ± 4.08% | 4.23 | 4.23 | 0.78 | 0.48 | 132 nM | 2.20 | 2.20 | 8.31 ± 5.73% |  |  |  |  |  |  | > 14100 nM | 
14 | O=C(CSc1ccc(Cl)cc1)NNC(=O)c1ccc([N+](=O)[O-])cc1 [SR-01000286858] | 111.41 ± 5.44% |  |  |  |  |  | 2.09 | 2.08 | 4.98 ± 9.07% | > 14100 nM | 0.38 | 0.60 | 3.68 | 3.67 | 366 nM |  | 
15 | O=c1cc(-c2ccccc2)[nH]c2nc(OCc3cccc([N+](=O)[O-])c3)nn12 [SR-01000289377] | 79.17 ± 5.74% |  |  |  |  |  | 1.72 | 1.72 | −0.70 ± 7.45% | > 14100 nM | 0.32 | 1.25 | 3.01 | 3.01 | 727 nM |  | 
16 | O=C(CSCc1ccc(Cl)cc1Cl)NNC(=O)c1ccccc1 [SR-01000295701] | 126.44 ± 4.55% | 5.48 | 5.47 |  | 0.56 | < 0.716 nM |  |  |  |  |  |  |  |  |  |  | Lipophilic Efficiency (logD) (parental HEK cells; HEK Agonist Activity): 1.19; Lipophilic Efficiency (logP) (parental HEK cells; HEK Agonist Activity): 1.17; Averaged Max % Response (±St. Dev.) (parental HEK cells; HEK Agonist Activity): −4.01 ± 2.60%; EC50 (parental HEK cells; HEK Agonist Activity, parental non-transfected HEK cells): > 14100 nM
